Assay results reported in patent publication US20100210568A1, “T[…] HORMONE FOR […] APPLICATIONS” (priority 2007, published 2010).

Tested on: drug-resistant Mycobacterium tuberculosis
Settings: peptide 10 micrograms per ml, seven days

## NC(=O)[C@@H]1CCCN1C(=O)[C@H](Cc1cnc[nH]1)NC(=O)[C@@H]1CCC(=O)N1 [TRH, Pyr-His-Pro-NH2]
  % inhibition: 0.0%
